# Reference: patent publication US8541395B2 (priority 2009, dated 2013)
# Experiments:
# left atrium of rats = experiment: Inotropism of isolated rat atrium (cardiac contraction force)
# Text: The left atrium of rats was used to assess the inotropic activity. The data were expressed as contraction force (g of tension), and were compared to the results obtained with bupivacaine.
# The application of square pulses (5 V, 5 ms, 2 Hz) in the left atrium with frequency of 120 bpm was sufficient to produce a cardiac contraction force of 0.63±0.09 g of tension.
# right atrium of rats = experiment: Chronotropism of isolated rat atrium (frequency of spontaneous contractions)
# Text: The right rat atrium was used to assess the chronotropic activity. The values of the spontaneous mechanical activity of the right atrium were expressed in contractions frequency or beats per minute (bpm). The heart rate was 298±50 contractions per minute in the rat right atrium.
# male Swiss mice [1] = experiment: Hot plate assay; conditions: naloxone 5 mg/kg i.p.; morphine dose printed as 'mg/kg'; telocinobufagin 5 mg/kg oral
# male Swiss mice [2] = experiment: Tail flick assay; conditions: naloxone 5 mg/kg i.p.; morphine 10 mg/kg; telocinobufagin 5 mg/kg oral
# [3] = tested on: rats with sciatic nerve ligature; experiment: Chronic constrictive injury (CCI) model, allodynia (von Frey)
# male Swiss mice [4] = experiment: Formalin assay (intraplantar 4% formalin, phases 1 and 2) in mice; conditions: naloxone 5 mg/kg i.p., morphine 10 mg/kg, telocinobufagin 5 mg/kg oral
# male Swiss mice [5] = experiment: Contortion assay (0.6% acetic acid, abdominal contortions) in mice; conditions: naloxone 5 mg/kg i.p.; morphine 10 mg/kg i.p.; telocinobufagin 10 mg/kg oral
# [6] = tested on: rats with sciatic nerve ligature; experiment: Chronic constrictive injury (CCI) model, hyperalgesia (Randall & Selitto paw pressure); conditions: naloxone 5 mg/kg i.p.; morphine 10 mg/kg; telocinobufagin 5 mg/kg i.p.
smiles,measurement,setting,value
"CCCCN1CCCCC1C(=O)Nc1c(C)cccc1C (stereo not drawn) [bupivacaine, reference compound]",cardiac contraction force,"left atrium of rats; 3×10^−5 M, basal 0.63±0.09, mean±SEM, n=6",0.13±0.06 g of tension
same,cardiac contraction force,"left atrium of rats; 10^−4 M, p<0.05",blocked completely the cardiac contraction force to zero
same,frequency of spontaneous cardiac activity,"right atrium of rats; 3×10^−5 M, basal 298±50, mean±standard error, n=6",9.6±2.4 bpm
same,heart rate (frequency of spontaneous cardiac activity),"right atrium of rats; 10^−4 M, p<0.05",blocked completely the heart rate to zero
"CN1CC[C@]23c4c5ccc(O)c4O[C@H]2[C@@H](O)C=C[C@H]3[C@H]1C5.O=S(=O)(O)O [morphine, morphine sulfate, reference compound]",effect of naloxone on the analgesic action,male Swiss mice [1],blocked
same,effect of naloxone on the analgesic action,male Swiss mice [2],blocked
same,reversion of the allodynia (compared to RP),[3]; intraperitoneal morphine 10 mg/kg,~50%
same,"effect of naloxone on the analgesic action, allodynia","[3]; naloxone 5 mg/kg i.p., morphine 10 mg/kg, telocinobufagin 5 mg/kg i.p.",blocked
same,"effect of naloxone on the analgesic action, phase 1",male Swiss mice [4]; phase 1,blocked
same,"effect of naloxone on the analgesic action, phase 2",male Swiss mice [4]; phase 2,blocked
same,effect of naloxone on the analgesic action,male Swiss mice [5],blocked
same,"effect of naloxone on the analgesic action, hyperalgesia",[6],blocked
